Measured values taken from patent publication US20030055018A1, “Modulation of phosphoinositide 3-kinase activity” (priority 2001, published 2003).

Key:
HaCaT cells = assay: Suspension survival assay of HaCaT keratinocytes; assay type: cell-based, human
Method: FIG. 8 is presented to complementary roles of tyrosine kinase and small GTPase signals induced by integrin or growth factor stimulation, in PI3K/Akt activation and cell survival. […] Akt kinase activity in cell lysates harvested 30 minutes later was measured by in vitro phosphorylation of H2B. […] HaCaT cells or HaCaT cells stably-expressing activated H-Ras G12V were cultured on 0.9% agarose in MCDB base medium. EGF was used at 2 nM concentration in the indicated culltures. Cell aliquots were removed after 6 hours in suspension for immunoblot analysis. Cell viability was examined after 10 days in suspension as described (Jost et al., 2001, Mol Biol Cell 12, 1519-27). (C) A model of PI3K activation by tyrosine kinase- and small GTPase signals. According to this model, p85 binds, via its cSH2 motif, tyrosine phosphorylated proteins and undergoes phosphorylation at Y688. Phosphorylation at this site, functionally inactivates the p85 inhibitory domain. Neutralization of the inhibitory domain renders p85 responsive to PI3K activation signals that are transduced by small GTPases.
These experiments were carried out in serum-free define media. The constitutively-active H-Ras G12V activates the PI3K/Akt pathway and rescues cells from anoikis only in suspension cultures supplemented with epidermal growth factor (EGF) (FIG. 8B). […] Thus, PI3K/Akt activation and inhibition of anoikis depend on the combination of tyrosine kinase and small GTPase signals.
Suspension survival assay were performed as previously described (Jost et al., 2001, Mol Biol Cell 12, 1519-27). […] Cell viability was measured after 10 days in suspension. Cell viability was analysed by crystal violet staining of cells reseeded after 10 days of suspension culture onto tissue culture-treated plastic and allowed to grow for 3 days. […]

PI3K = assay: PtdIns-3,4,5-P3 measured by thin layer chromatography in lipid extracts of 32P-labeled transfected NIH3T3 cells; assay type: cell-based, mouse; conditions: construct co-transfected with constitutively-active H-Ras G12V; serum-free; 32P-orthophosphate 1.5 h
Method: In FIG. 1, it is shown that p85 inhibits while p85Δonc enhances PI3K activation by small GTPases. (A) Schematic diagrams and expression of transiently transfected HA-tagged p85-WT and p85Δonc constructs. (B) Upper panel. p85-WT inhibits while p85Δonc enhances HRas-induced PtdIns-3, 4, 5-P3 production. The indicated constructs were transiently transfected into NIH3T3 cells. Sixteen hours after transfection, the cells were cultured in serum-free media. Five hours later, they were labeled with ^32P-orthophosphate for 1.5 hours. Total phospholipids were analyzed by thin layer chromatography. (B) Lower panel. p85-WT inhibits while p85Δonc enhances H-Ras induced Akt phosphorylation. Immunoblots of cell extracts from duplicate transfections were probed with an antibody that recognizes Akt phosphorylated at Thr308 or with antibodies that recognize the proteins expressed from the transfected constructs. […] NIH3T3 cells were transiently transfected with the indicated constructs. ^32P-labeled PtdIns-3, 4, 5-P3 was measured as described in B. Akt phosphorylation at Thr308 and expression of transfected constructs were determined by probing immunoblots with the corresponding antibodies. […]
PtdIns-3, 4, 5-P3 was measured in lipid extracts of ^32P-labeled NIH3T3 cells by thin layer chromatography (Maehama et al., 1998, J Biol Chem 273, 13375-8). […]

PI3K/Akt pathway = assay: Akt activation in transfected NIH3T3 cells (H2B phosphorylation by immunoprecipitated FLAG-Akt, or Akt Thr308 immunoblot); assay type: cell-based, mouse
Description: Specifically, to show whether membrane-associated full-length p85 is functionally similar to the carboxy-terminally truncated protein the p85 fused at its amino-terminus to a peptide encoding the Src myristoylation signal (Myrp85-WT) (FIG. 2A), was transiently expressed in NIH3T3 cells in combination with FLAG-Akt or FLAG-Akt plus H-Ras. Myrp85Δonc was used as a control. The cells were lysed forty-eight hours later, following overnight serum starvation. Akt activation in this, and subsequent experiments, was determined by measuring the phosphorylation of histone 2B (H2B) by immunoprecipitated Akt.
Akt/PKB activation by phosphorylation strictly depends on the binding of the Akt PH domain to PtdIns-3,4,5-P3 and therefore, indirectly measures intracellular PtdIns-3,4,5-P3 levels (Chan et al., 1999, Ann Rev Biochem 68, 965-1015). Akt/PKB kinase activation was determined either by measuring the phosphorylation of Akt at Thr308 using an antibody from Cell Signaling Technology or by measuring the kinase activity of immunoprecipitated FLAG-tagged wild type Akt. The activity of immunoprecepitated Akt was measured using Histone 2B as the substrate, and following previously described protocols (Bellacosa et al., 1998, Oncogene 17, 313-25; Franke et al., 1995, Cell 81, 727-736) with slight modifications. Briefly, cells were lysed on ice using a NP40 lysis buffer (25 mM Tris-HCl pH 7.6, 137 mM NaCl, 10% glycerol, 1% NP40, 10 mM NaF) freshly supplemented with 1 mM Sodium pyrophosphate, 5 μg/ml leupeptin, 5 μg/ml aprotinin, 1 mM EDTA, 10 mM PMSF, 1 mM NaVO4 and 1 mM DTT. […] The phosphorylated Histone H2B was visualized by autoradiography and quantitated by Phosphorlmager (Molecular Dynamics). Akt expression was determined by probing the membranes with a polyclonal rabbit anti-Akt antibody.
Specific Akt kinase activity was determined by Phosphorimager-quantitation of the ^32P-phosphorylated Akt substrate Histone 2B, and by quantification of Akt in anti-Akt immunoprecipitates using a laser densitometry scanner (Molecular Dynamics). […]

Substance	Long-term cell survival (10 days) in suspension, cells expressing activated H-Ras G12V (HaCaT cells; EGF 2 nM, serum-free defined medium)	Rescue from anoikis, HaCaT cells without H-Ras G12V (HaCaT cells; EGF alone, 2 nM)	PI3K/Akt activation, HaCaT cells without H-Ras G12V (HaCaT cells; EGF alone, 2 nM, 6 hours in suspension)	H-Ras-induced PtdIns-3, 4, 5-P3 production (PI3K)	PI3K activation by Ras signals in the presence of NM-Src (PI3K/Akt pathway; H-Ras-G12V plus NM-Src, PtdIns-3,4,5-P3 and Akt Thr308)	H-Ras induced Akt phosphorylation at Thr308 (PI3K/Akt pathway; co-transfected with H-Ras G12V, immunoblot)	PI3K/Akt activation by H-Ras (Akt kinase activity, H2B phosphorylation) (PI3K/Akt pathway; co-transfected with constitutively-active H-Ras and FLAG-Akt, overnight serum starvation)
epidermal growth factor (NSDSECPLSHDGYCLHDGVCMYIEALDKYACNCVVGYIGERCQYRDLKWWELR; Epidermal growth factor; UniProt P01133 971-1023, looked up) [EGF]	cooperate to support long-term cell survival	failed to rescue	inefficient	–	–	–	–
p85-WT: HA-tagged construct of wild-type p85, regulatory subunit of PI3K	–	–	–	inhibits	does not inhibit	inhibits	blocks
